Holding throughout (assay type): cell-based
Data set [1] deals with hERG (Homo sapiens, UniProt Q12809). Briefly: hERG HCS, FLIPR potassium assay, CHO/hERG. Further details: host or cells: CHO. Conditions: for hERG IC50 (inhibition in parentheses): at highest concentration shown. The method, then:
Cell culture: Chinese hamster ovary (CHO) cell-line cells with a constitutive expression of human hERG channels (B'SYS GmbH, Switzerland) were cultured in F-12 nutrient mixture (Biological Industries) supplemented with 10% fetal bovine serum (Biological Industries) and 1% penicillin-streptomycin (Biological Industries) in a humidified 5% CO2 incubator at 37° C. To maintain the hERG expression stability of the CHO cell line, antibiotics selection (G418 […] and Hygromycin 500) was applied.
FLIPR Potassium Assay Kit: The FLIPR Potassium Assay Kit (R8222 FLIPR Potassium Assay Explorer Kits, Molecular Devices) was used with CHO/hERG cell line, for screening compounds against the hERG ion-channel off-target, as detailed hereinabove.
According to optimization process, to achieve a uniform and consistent screening condition of molecules, the following protocol was established: Cells were seeded in 384-well, black-walled, clear-bottomed, at a density of 7,500 cells per well 24 hours before the assay conductance and incubated overnight in their normal growth medium. On the experiment day the medium was replaced with HBSS, HEPES, and the tested compound/vehicle (0.2% DMSO). Dye solution (prepared according to the manufacturer) was added to the wells and plates were incubated for 1.5 hour light-protected in room temperature. The Tecan Spark plate-reader injectors were primed with Tl+(1 mM Tl2SO4) or Tl++K+(1 mM Tl2SO4; 10 mM K2SO4) for channel activation and data correction. […]. To calculate IC50 values, the data was fitted to sigmoidal regression using Prism GraphPad.

For data set [2], the target named is T1, hTRPV1 (Homo sapiens, UniProt Q8NER1).
T1 construct: CDS of NM_080704.4, inserted into the multiple cloning site of pcDNA3.1(+); host or cells: CHO/hKv7.2/3
Briefly: TRPV1 HCS, Fluo-8 calcium flux, capsaicin activation, CHO cells expressing hTRPV1. The method, boiled down:
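CHO cells stably expressing hTRPV1 were seeded 24 h ahead, then exposed to compound in HBSS/HEPES (0.2% DMSO) with Fluo-8 dye for 1.5 h at room temperature before capsaicin was injected. Fluorescence was background-subtracted and normalized to the ionomycin maximum. IC50 came from sigmoidal fits constrained to a 0 minimum and a maximum of about 1.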

Data set [3] addresses T2, hKv7.2/3 (Homo sapiens, UniProt O43525+O43526).
T2 construct: host or cells: CHO
Put plainly: Kv7.2/7.3 HCS, FLIPR potassium (thallium) assay, CHO/hKv7.2/3. An outline of the steps:
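CHO cells stably expressing human Kv7.2/3, loaded with Tl+ indicator dye 1.5 h at room temperature in HBSS/HEPES with compound (0.2% DMSO). Channels activated by injection of 1 mM Tl2SO4 plus 5 mM K2SO4; fluorescence increase reflects Tl+ influx. EC50 from sigmoidal fit constrained to minimum 1, maximum ~3.6.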

[4] abbreviates: cells expressing TRPV1, read-out: TRPV1 IC50.
Where [5] appears, read: Table 1, read-out: Kv7.2/7.3 IC50.

Like-named read-outs stand apart in the source and are kept apart here. Where only a bound is given, the exact number is not on record here.

T1 sequence (Q8NER1 whole entry): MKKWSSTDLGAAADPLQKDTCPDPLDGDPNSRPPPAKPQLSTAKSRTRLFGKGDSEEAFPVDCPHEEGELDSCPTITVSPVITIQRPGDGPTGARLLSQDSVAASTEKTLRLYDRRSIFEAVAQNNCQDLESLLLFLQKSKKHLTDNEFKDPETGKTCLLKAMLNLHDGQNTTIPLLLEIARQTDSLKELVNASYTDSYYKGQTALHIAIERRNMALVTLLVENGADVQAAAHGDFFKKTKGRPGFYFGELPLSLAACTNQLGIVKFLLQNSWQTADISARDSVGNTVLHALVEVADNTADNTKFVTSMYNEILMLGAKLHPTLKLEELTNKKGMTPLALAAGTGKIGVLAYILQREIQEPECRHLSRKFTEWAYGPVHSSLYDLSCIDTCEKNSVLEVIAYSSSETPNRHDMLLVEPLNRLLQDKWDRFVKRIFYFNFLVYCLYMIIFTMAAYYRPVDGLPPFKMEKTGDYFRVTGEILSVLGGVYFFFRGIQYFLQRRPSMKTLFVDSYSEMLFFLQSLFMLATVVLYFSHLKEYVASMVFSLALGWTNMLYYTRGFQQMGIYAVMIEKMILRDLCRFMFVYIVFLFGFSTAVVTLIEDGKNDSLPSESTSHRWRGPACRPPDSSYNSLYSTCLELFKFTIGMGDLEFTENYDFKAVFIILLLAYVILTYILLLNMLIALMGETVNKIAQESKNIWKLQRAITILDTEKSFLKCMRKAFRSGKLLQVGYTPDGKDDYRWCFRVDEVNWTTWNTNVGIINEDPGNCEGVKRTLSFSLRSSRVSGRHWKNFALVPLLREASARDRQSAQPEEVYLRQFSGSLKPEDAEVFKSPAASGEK
T2 sequence (O43525 whole entry): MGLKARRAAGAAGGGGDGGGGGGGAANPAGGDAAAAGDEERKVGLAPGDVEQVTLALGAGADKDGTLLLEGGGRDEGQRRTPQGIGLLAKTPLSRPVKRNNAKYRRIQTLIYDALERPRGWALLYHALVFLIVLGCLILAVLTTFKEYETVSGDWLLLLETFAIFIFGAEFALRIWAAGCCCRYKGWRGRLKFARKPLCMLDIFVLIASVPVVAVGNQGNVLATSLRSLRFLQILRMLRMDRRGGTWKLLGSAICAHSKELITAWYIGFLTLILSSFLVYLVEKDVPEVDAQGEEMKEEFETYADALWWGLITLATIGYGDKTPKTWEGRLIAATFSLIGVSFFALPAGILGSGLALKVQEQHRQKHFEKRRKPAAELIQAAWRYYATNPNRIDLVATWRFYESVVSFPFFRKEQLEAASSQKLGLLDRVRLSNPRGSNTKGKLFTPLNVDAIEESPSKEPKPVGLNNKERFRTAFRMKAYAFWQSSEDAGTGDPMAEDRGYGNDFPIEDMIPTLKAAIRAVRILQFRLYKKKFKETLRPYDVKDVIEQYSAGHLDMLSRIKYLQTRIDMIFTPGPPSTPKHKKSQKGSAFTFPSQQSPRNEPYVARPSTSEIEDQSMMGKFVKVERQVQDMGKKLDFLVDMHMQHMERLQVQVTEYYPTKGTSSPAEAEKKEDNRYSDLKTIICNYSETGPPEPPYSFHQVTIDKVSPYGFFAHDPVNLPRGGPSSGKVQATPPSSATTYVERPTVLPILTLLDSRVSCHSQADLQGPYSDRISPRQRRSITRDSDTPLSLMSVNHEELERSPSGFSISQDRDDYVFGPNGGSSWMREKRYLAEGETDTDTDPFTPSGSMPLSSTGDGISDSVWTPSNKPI
T2 sequence (O43526 whole entry): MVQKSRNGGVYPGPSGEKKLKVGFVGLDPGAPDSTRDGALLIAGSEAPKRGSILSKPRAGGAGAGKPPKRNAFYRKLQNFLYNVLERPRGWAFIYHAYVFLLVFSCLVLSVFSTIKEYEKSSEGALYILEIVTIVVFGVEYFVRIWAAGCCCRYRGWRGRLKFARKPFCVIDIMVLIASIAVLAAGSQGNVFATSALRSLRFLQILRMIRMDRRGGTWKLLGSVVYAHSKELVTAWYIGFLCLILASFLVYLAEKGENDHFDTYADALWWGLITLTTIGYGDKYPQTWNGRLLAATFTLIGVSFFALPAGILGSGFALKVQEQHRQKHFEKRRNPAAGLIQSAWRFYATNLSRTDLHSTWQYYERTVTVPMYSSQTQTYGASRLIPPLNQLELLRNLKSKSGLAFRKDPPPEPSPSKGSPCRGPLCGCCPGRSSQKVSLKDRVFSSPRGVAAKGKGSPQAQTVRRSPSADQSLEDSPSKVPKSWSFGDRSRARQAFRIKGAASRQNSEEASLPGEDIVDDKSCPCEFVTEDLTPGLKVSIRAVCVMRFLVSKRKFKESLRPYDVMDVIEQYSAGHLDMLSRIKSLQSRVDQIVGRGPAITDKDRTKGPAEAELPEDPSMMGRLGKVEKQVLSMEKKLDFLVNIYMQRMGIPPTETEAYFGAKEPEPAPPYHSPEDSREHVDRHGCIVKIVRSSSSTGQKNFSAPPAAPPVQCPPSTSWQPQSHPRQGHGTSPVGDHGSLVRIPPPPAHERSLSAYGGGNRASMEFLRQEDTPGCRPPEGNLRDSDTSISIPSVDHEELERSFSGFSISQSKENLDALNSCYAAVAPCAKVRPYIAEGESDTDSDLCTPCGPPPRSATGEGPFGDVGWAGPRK
Sequence of hERG (Q12809 whole entry): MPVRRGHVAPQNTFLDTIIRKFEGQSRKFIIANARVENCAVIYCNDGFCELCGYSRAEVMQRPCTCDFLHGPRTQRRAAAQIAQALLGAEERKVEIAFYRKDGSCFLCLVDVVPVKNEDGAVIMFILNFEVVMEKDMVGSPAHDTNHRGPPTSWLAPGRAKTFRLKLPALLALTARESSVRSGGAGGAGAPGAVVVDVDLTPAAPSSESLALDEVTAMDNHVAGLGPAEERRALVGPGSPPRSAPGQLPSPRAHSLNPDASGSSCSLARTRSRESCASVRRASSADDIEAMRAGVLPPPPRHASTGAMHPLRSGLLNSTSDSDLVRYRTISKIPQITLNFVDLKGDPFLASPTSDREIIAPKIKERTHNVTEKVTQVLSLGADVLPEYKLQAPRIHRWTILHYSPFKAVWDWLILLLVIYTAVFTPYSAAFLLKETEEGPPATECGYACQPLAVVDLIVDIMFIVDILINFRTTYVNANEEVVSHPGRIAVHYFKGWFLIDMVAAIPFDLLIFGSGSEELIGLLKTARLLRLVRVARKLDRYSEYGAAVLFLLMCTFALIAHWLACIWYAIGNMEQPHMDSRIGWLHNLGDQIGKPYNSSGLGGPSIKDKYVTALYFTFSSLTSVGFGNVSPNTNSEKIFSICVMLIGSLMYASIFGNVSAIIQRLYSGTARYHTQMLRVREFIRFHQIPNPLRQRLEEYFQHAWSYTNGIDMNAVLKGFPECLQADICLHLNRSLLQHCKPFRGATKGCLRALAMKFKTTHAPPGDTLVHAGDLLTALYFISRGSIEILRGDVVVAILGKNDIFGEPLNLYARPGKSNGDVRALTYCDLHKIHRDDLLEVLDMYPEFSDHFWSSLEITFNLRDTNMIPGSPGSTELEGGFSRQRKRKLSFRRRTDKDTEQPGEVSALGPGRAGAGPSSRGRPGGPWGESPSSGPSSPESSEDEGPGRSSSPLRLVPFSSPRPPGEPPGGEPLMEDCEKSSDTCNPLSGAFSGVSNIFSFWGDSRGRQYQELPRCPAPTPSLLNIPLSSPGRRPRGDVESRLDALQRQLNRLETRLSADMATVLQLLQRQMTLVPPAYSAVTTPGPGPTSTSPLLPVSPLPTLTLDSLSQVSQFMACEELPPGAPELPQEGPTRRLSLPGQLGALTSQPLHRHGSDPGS

As for `O=C(Cc1nccc(-n2cc(Cl)c3cc(Cl)cc(Cl)c32)n1)NC1COCC1O` (centres unmarked) [Compound 760], the “hERG activity” value in data set [1] was “lacks any effect on hERG and Kv7.3/4/5 activity below 10 μM”. Besides, in data set [1] (human, cho/herg cells, Thallium ions (Tl+) fluorescence, read-out: hERG EC50), the IC50 was determined as 33.4 µM.

For the compound `CC(C)c1cc(Cl)cc(Cl)c1Nc1ccc(F)c(CC(=O)NCC(C)(C)O)c1` [NH91, reference compound], the IC50 in data set [2] worked out at 8 µM. The EC50 in data set [3] (read-out: Kv7.2/7.3 EC50) turned out to be 700 nM.

For `O=C(Cc1cc(-n2cc(Cl)c3cc(Cl)cc(Cl)c32)ccc1F)NCCO` [Compound 627], the IC50 in data set [2] (setting [4]) was 1.9 µM; in data set [2] (read-out: CAP hTRPV1 IC50 HCS), 1.9 µM; in data set [1] (Table 1, read-out: hERG IC50), > 2.5 µM; in data set [1] (hERG IC50 HCS), > 2.65 µM. For the same compound, the “Kv7.2/3 activation (words)” value in data set [3] was “significant hKv7.2/3 activation even at picomolar concentrations”. The activation at 0.01 µM in data set [3] (10 nM range) is ~30%. Further, the EC50 came to 540 nM in data set [3] (setting [5]) and 500 nM in data set [3] (read-out: Kv7.2/7.3 EC50). Besides, the “hERG IC50 (inhibition in parentheses)” value in data set [1] (Table 1) amounted to 0%.

As for `COC[C@@H](CO)NC(=O)Cc1cc(Sc2c(Cl)cc(F)cc2C(C)C)ccc1F` [Compound 415], the IC50 in data set [2] is 7.8 µM; in data set [2] (setting [4]) it was 7.7 µM; in data set [1] (Table 1, read-out: hERG IC50), > 23 µM. For the same compound, in data set [3] (setting [5]), the EC50 came out at 2200 nM. The “hERG IC50 (inhibition in parentheses)” value in data set [1] (Table 1) was determined as 0%.

`Cc1cn(-c2ccc(F)c(CC(=O)NCC(C)(C)O)c2)c2c(Cl)cc(Cl)cc12` [Compound 421]: the IC50 in data set [2] was 1.8 µM; in data set [1] (hERG IC50 HCS) it was > 2.5 µM. Further, the EC50 in data set [3] (read-out: hKv7.2/3 EC50 HCS) was 824 nM.

On to `O=C(Cc1cncc(-n2cc(Cl)c3cc(Cl)cc(Cl)c32)c1)N[C@@H]1COC[C@H]1O` [Compound 661], for which the IC50 in data set [2] was 19 µM; in data set [2] (setting [4]), 19.3 µM; in data set [2] (read-out: CAP hTRPV1 IC50 HCS), 19.1 µM; in data set [1] (Table 1, read-out: hERG IC50), > 16.6 µM; in data set [1] (hERG IC50 HCS), 18.7 µM. In addition, the “Kv7.2/3 activation (words)” value in data set [3] was “partial yet potent facilitation of Kv7.2/3 activity”. Moreover, the EC50 stood at 1100 nM in data set [3] (setting [5]) and 0.001 nM in data set [3] (read-out: hKv7.2/3 EC50 HCS). Also, the Emax in data set [3] (read-out: Kv7.2/3 maximal opening vs. control) came to 21%. In addition, the “hERG activity” value in data set [1] is reported as “no measurable activity at any concentration tested”. Further, the “hERG IC50 (inhibition in parentheses)” value in data set [1] (Table 1) is listed as 0%.

For `CC(C)c1cc(Cl)cc(Cl)c1C(=O)c1ccc(F)c(CC(=O)NCC(C)(C)O)c1` [Compound 417-4], the IC50 in data set [2] (setting [4]) was 8 µM; in data set [1] (Table 1, read-out: hERG IC50), > 35 µM. The EC50 in data set [3] (setting [5]) amounted to 13400 nM. Besides, the “hERG IC50 (inhibition in parentheses)” value in data set [1] (Table 1) is given as 0%.

`Cc1cn(-c2ccc(F)c(CC(=O)NCC(C)(C)O)c2)c2c(Cl)cc(Cl)cc12` [Compound 421-6]: the IC50 in data set [2] (setting [4]) was 2.1 µM; in data set [1] (Table 1, read-out: hERG IC50), > 2.5 µM. The figures for the EC50 in data set [3] (setting [5]) and in data set [3] (read-out: Kv7.2/7.3 EC50) were 1100 nM and 2100 nM, respectively. Further, the “hERG IC50 (inhibition in parentheses)” value in data set [1] (Table 1) amounted to 0%.

(Values after patent US20260327211A1, “MODULATORS OF A POTASSIUM CHANNEL AND OF TRPV1 CHANNEL AND USES THEREOF” (Bsense Bio Therapeutics Ltd., priority 2023, published 2026).)
